Assay results reported in US20260258030A1, “USE AND TREATMENT METHOD OF AZETIDINE DERIVATIVE” (SICHUAN KELUN-BIOTECH BIOPHARMACEUTICAL CO., LTD., priority 2022, published 2026).

Tests used:
[1] = biological target: p70S6K (p70 ribosomal protein S6 kinase) (Homo sapiens, UniProt P23443); assay: In vitro kinase inhibition, enzymatic assay, p70S6K; assay type: biochemical; settings: at a concentration of 200 nM; read-out: inhibition rate on p70S6K
Description: (§1) An in vitro enzymatic assay system was used to test the inhibitory effect of Compound 8 on certain kinase targets.

[2] = tested on: STAT3 phosphorylation induced by cytokine IL-6 stimulation in CD4+ T cells; assay: Inhibition of STAT3 phosphorylation induced by IL-6 in CD4+ T cells in human whole blood (flow cytometry); assay type: cell-based
Description: (§2) The inhibitory effect of Compound 8 on STAT5 phosphorylation induced by cytokine IL-2 stimulation in CD4+ T cells in human whole blood, as well as on STAT3 phosphorylation induced by cytokine IL-6 stimulation in CD4+ T cells in human whole blood, was detected using flow cytometry.

[3] = tested on: STAT5 phosphorylation induced by cytokine IL-2 stimulation in CD4+ T cells; assay: Inhibition of STAT5 phosphorylation induced by IL-2 in CD4+ T cells in human whole blood (flow cytometry); assay type: cell-based
Description: as §2

PKA (protein kinase A) = PKA (protein kinase A) (Homo sapiens, UniProt P17612); assay: In vitro kinase inhibition, enzymatic assay, PKA; assay type: biochemical; settings: at a concentration of 200 nM; read-out: inhibition rate on PKA
Description: as §1

Sequence of p70S6K (p70 ribosomal protein S6 kinase) (P23443 whole entry): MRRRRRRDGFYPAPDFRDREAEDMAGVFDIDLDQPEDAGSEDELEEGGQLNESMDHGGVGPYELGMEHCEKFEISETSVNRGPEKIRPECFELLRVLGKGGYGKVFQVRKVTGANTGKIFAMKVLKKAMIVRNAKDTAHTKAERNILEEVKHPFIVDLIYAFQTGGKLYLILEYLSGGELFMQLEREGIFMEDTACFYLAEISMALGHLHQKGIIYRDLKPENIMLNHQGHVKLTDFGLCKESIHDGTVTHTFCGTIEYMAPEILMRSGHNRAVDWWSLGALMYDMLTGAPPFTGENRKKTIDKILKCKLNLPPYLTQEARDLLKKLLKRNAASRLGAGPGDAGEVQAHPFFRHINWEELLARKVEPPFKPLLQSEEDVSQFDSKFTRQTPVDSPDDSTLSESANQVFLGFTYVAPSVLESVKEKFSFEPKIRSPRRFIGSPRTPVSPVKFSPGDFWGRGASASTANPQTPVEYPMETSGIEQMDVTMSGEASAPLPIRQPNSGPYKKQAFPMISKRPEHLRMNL

inhibition at 0.2 µM [1]: 67% | IC50 [2]: 1510 ± 60 nM | IC50 [3]: 460 ± 30 nM | inhibition at 0.2 µM (PKA (protein kinase A)): 75%
SMILES: CCS(=O)(=O)N1CC(CC#N)(n2cc(-c3ccnc4[nH]ccc34)cn2)C1 [Compound 8]
